Measured values as given in US20230143612A1 (Arbutus Biopharma Corporation, priority 2020, published 2023).

Target: PD-L1 His protein / PD-1 Fc protein (Homo sapiens, UniProt Q9NZQ7)
Assay: HTRF Assay (PD-1/PD-L1 interaction)
Format: binding
Settings: PD-L1 His 6 nM, PD-1 Fc 6 nM
How it was run: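 Compounds tested from 20 μM down to 0.001 μM (3-fold) against 6 nM PD-L1 His and 6 nM PD-1 Fc, 15 min room temperature incubation. Detection after 1 h at room temperature with Tb cryptate anti-6HIS and XL665 anti-human IgG reagents (mixture at 0.35 nM and 6.7 nM), HTRF signal.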

PD-L1 His protein / PD-1 Fc protein, sequence (Q9NZQ7 19-238 limits assumed): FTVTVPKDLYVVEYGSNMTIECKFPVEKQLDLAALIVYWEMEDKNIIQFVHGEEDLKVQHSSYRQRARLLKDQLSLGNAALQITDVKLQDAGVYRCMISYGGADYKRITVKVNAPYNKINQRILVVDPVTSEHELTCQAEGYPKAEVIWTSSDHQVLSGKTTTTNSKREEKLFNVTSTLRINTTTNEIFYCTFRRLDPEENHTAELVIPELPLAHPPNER

Row | Structure (SMILES) | IC50 [nM]
1 | COc1nc(-c2cccc(-c3cccc(-c4ccn5c(=O)c(CNCC[C@@H]6CCC(=O)N6)cnc5c4)c3Cl)c2Cl)ccc1CNC[C@@H]1CCC(=O)N1 [Example 214, 8-[2-chloro-3-[2-chloro-3-[6-methoxy-5-[[[(2S)-5-oxopyrrolidin-2-yl]methylamino]methyl]-2-pyridyl]phenyl]phenyl]-3-[[2-[(2S)-5-oxopyrrolidin-2-yl]ethylamino]methyl]pyrido[1,2-a]pyrimidin-4-one] | 0.5
2 | COc1nc(-c2cccc(-c3cccc(-c4ccn5c(=O)c(CNC[C@@H]6CCC(=O)N6)cnc5c4)c3Cl)c2Cl)ccc1CN1CC(C(=O)O)C1 [Example 119, (S)-1-((6-(2,2′-Dichloro-3′-(4-oxo-3-((((5-oxopyrrolidin-2-yl)methyl)amino)methyl)-4H-pyrido[1,2-a]pyrimidin-8-yl)-[1,1′-biphenyl]-3-yl)-2-methoxypyridin-3-yl)methyl)azetidine-3-carboxylic acid] | 0.3
3 | COc1nc(-c2cccc(-c3cccc(-c4ccn5c(=O)c(CNCCO)cnc5c4)c3Cl)c2Cl)ccc1CNC[C@@H]1CCC(=O)N1 [Example 80, (S)-8-(2,2′-Dichloro-3′-(6-methoxy-5-((((5-oxopyrrolidin-2-yl)methyl)amino)methyl)pyridin-2-yl)-[1,1′-biphenyl]-3-yl)-3-(((2-hydroxyethyl)amino)methyl)-4H-pyrido[1,2-a]pyrimidin-4-one] | 4.2
4 | COC(=O)C1CN(Cc2cnc3cc(-c4cccc(-c5cccc(-c6ccc(CN7CC(C(=O)OC)C7)c(OC)n6)c5Cl)c4Cl)ncc3c2)C1 [Example 289, Methyl 1-((6-(2,2′-dichloro-3′-(3-((3-(methoxycarbonyl)azetidin-1-yl)methyl)-1,6-naphthyridin-7-yl)-[1,1′-biphenyl]-3-yl)-2-methoxypyridin-3-yl)methyl)azetidine-3-carboxylate] | 9
5 | COc1nc(-c2cccc(-c3cccc(-c4ccn5c(=O)c(CNC6(C(=O)O)CC6)cnc5c4)c3Cl)c2Cl)ccc1CNC[C@@H]1CCC(=O)N1 [Example 120, (S)-1-(((8-(2,2′-Dichloro-3′-(6-methoxy-5-((((5-oxopyrrolidin-2-yl)methyl)amino)methyl)-pyridin-2-yl)-[1,1′-biphenyl]-3-yl)-4-oxo-4H-pyrido[1,2-a]pyrimidin-3-yl)methyl)amino)-cyclopropane-1-carboxylic acid] | 0.4
6 | COc1nc(-c2cccc(-c3cccc(-c4ccn5c(=O)c(C6=NCC(O)CN6)c(C)nc5c4)c3Cl)c2Cl)ccc1CNC[C@@H]1CCC(=O)N1 (stereo partly drawn) [Example 290, 8-(2,2′-dichloro-3′-(6-methoxy-5-(((((S)-5-oxopyrrolidin-2-yl)methyl)amino)methyl)pyridin-2-yl)-[1,1′-biphenyl]-3-yl)-3-(5-hydroxy-1,4,5,6-tetrahydropyrimidin-2-yl)-2-methyl-4H-pyrido[1,2-a]pyrimidin-4-one] | 0.4
7 | COC(=O)[C@H]1CCN(Cc2c(C)nc3cc(-c4cccc(-c5cccc(-c6ccc(CNC[C@@H]7CCC(=O)N7)c(OC)n6)c5Cl)c4Cl)ccn3c2=O)C1 [Example 265, (S)-Methyl 1-((8-(2,2′-dichloro-3′-(6-methoxy-5-(((((S)-5-oxopyrrolidin-2-yl)methyl)amino)methyl)pyridin-2-yl)-[1,1′-biphenyl]-3-yl)-2-methyl-4-oxo-4H-pyrido[1,2-a]pyrimidin-3-yl)methyl)pyrrolidine-3-carboxylate] | 0.7
8 | COc1nc(-c2cccc(-c3cccc(-c4ccc5c(c4)OCCC5NC[C@@H]4CCC(=O)N4)c3Cl)c2Cl)ccc1CNC[C@@H]1CCC(=O)N1 (mixture of isomers) [Example 326, (5S)-5-((((6-(2,2′-Dichloro-3′-(4-((((S)-5-oxopyrrolidin-2-yl)methyl)amino)chroman-7-yl)-[1,1′-biphenyl]-3-yl)-2-methoxypyridin-3-yl)methyl)amino)methyl)pyrrolidin-2-one] | 24
9 | COc1nc(-c2cccc(-c3cccc(-c4ccn5c(=O)c(CN(C)[C@@H](C)C(=O)O)cnc5c4)c3Cl)c2Cl)ccc1CNC[C@@H]1CCC(=O)N1 [Example 190, N-((8-(2,2′-Dichloro-3′-(6-methoxy-5-(((((S)-5-oxopyrrolidin-2-yl)methyl)amino)methyl)pyridin-2-yl)-[1,1′-biphenyl]-3-yl)-4-oxo-4H-pyrido[1,2-a]pyrimidin-3-yl)methyl)-N-methyl-L-alanine] | 0.1
10 | COc1nc(-c2cc(F)cc(-c3cccc(-c4ccn5c(=O)c(CNC[C@@H]6CCC(=O)N6)cnc5c4)c3C)c2Cl)ccc1CNC[C@@H]1CCC(=O)N1 [Example 97, 8-(2′-Chloro-5′-fluoro-3′-(6-methoxy-5-(((((S)-5-oxopyrrolidin-2-yl)methyl)amino)methyl)pyridin-2-yl)-2-methyl-[1,1′-biphenyl]-3-yl)-3-(((((S)-5-oxopyrrolidin-2-yl)methyl)amino)methyl)-4H-pyrido[1,2-a]pyrimidin-4-one] | 5.1
11 | COc1nc(-c2cccc(-c3cccc(-c4ccn5c(=O)c(CN6CC(C(=O)O)C6)cnc5c4)c3Cl)c2Cl)ccc1CN1CC(CO)C1 [Example 84, 1-((8-(2,2′-Dichloro-3′-(5-((3-(hydroxymethyl)azetidin-1-yl)methyl)-6-methoxypyridin-2-yl)-[1,1′-biphenyl]-3-yl)-4-oxo-4H-pyrido[1,2-a]pyrimidin-3-yl)methyl)azetidine-3-carboxylic acid] | 0.3
12 | Cc1c(-c2ccn3c(=O)c(CNCCO)cnc3c2)cccc1-c1cccc(COc2cc(OCc3cncc(C#N)c3)c(CNCCO)cc2Cl)c1Cl [Example 14, 5-((4-Chloro-5-((2-chloro-3′-(3-(((2-hydroxyethyl)amino)methyl)-4-oxo-4H-pyrido[1,2-a]pyrimidin-8-yl)-2′-methyl-[1,1′-biphenyl]-3-yl)methoxy)-2-(((2-hydroxyethyl)amino)methyl)phenoxy)methyl)nicotinonitrile] | 0.4
13 | Cc1c(-c2ccn3c(=O)c(CNC[C@@H]4CCC(=O)N4)cnc3c2)cccc1-c1cccc(-c2ccc(CNC[C@@H]3CCC(=O)N3)c(OC(F)(F)F)c2)c1Cl [Example 88, 8-(2′-Chloro-2-methyl-4″-(((((S)-5-oxopyrrolidin-2-yl)methyl)amino)methyl)-3″-(trifluoromethoxy)-[1,1′:3′,1″-terphenyl]-3-yl)-3-(((((S)-5-oxopyrrolidin-2-yl)methyl)amino)methyl)-4H-pyrido[1,2-a]pyrimidin-4-one] | 11
14 | COC(=O)[C@H](CO)NCc1ccc(-c2cccc(-c3cccc(-c4ccn5c(=O)c(CNC[C@@H]6CCC(=O)N6)cnc5c4)c3Cl)c2Cl)nc1OC [Example 113, Methyl ((6-(2,2′-dichloro-3′-(4-oxo-3-(((((S)-5-oxopyrrolidin-2-yl)methyl)amino)methyl)-4H-pyrido[1,2-a]pyrimidin-8-yl)-[1,1′-biphenyl]-3-yl)-2-methoxypyridin-3-yl)methyl)-L-serinate] | 54
15 | COc1nc(-c2cccc(-c3cccc(-c4cc5c(=O)n(C)c(CNCC6(F)CC6)nn5c4)c3Cl)c2Cl)ccc1CNC[C@@H]1CCC(=O)N1 [Example 463, (S)-6-(2,2′-Dichloro-3′-(6-methoxy-5-((((5-oxopyrrolidin-2-yl)methyl)amino)methyl)pyridin-2-yl)-[1,1′-biphenyl]-3-yl)-2-((((1-fluorocyclopropyl)methyl)amino)methyl)-3-methylpyrrolo[2,1-f][1,2,4]triazin-4(3H)-one] | 36
16 | COc1nc(-c2cccc(-c3cccc(-c4cc(C)n5c(=O)c(CNC[C@@H]6CCC(=O)N6)cnc5c4)c3Cl)c2Cl)ccc1CNC[C@@H]1CCC(=O)N1 [Example 183, 8-(2,2′-Dichloro-3′-(6-methoxy-5-(((((S)-5-oxopyrrolidin-2-yl)methyl)amino)methyl)pyridin-2-yl)-[1,1′-biphenyl]-3-yl)-6-methyl-3-(((((S)-5-oxopyrrolidin-2-yl)methyl)amino)methyl)-4H-pyrido[1,2-a]pyrimidin-4-one] | 44
17 | COc1nc(-c2cccc(-c3cccc(-c4cc5c(=O)n(C)c(CNCCCF)nn5c4)c3Cl)c2Cl)ccc1CNC[C@@H]1CCC(=O)N1 [Example 437, (S)-6-(2,2′-Dichloro-3′-(6-methoxy-5-((((5-oxopyrrolidin-2-yl)methyl)amino)methyl)pyridin-2-yl)-[1,1′-biphenyl]-3-yl)-2-(((3-fluoropropyl)amino)methyl)-3-methylpyrrolo[2,1-f][1,2,4]triazin-4(3H)-one] | 52
18 | COc1nc(-c2cccc(-c3cccc(-c4ccn5c(=O)c(CNCCn6cnnc6)cnc5c4)c3Cl)c2Cl)ccc1CNC[C@@H]1CCC(=O)N1 [Example 216, 8-[2-Chloro-3-[2-chloro-3-[6-methoxy-5-[[[(2S)-5-oxopyrrolidin-2-yl]methylamino]methyl]-2-pyridyl]phenyl]phenyl]-3-[[2-(1,2,4-triazol-4-yl)ethylamino]methyl]pyrido[1,2-a]pyrimidin-4-one] | 0.1
19 | COc1nc(-c2cccc(-c3cccc(-c4ccn5c(=O)c(CNC[C@H]6CNC(=O)C6)cnc5c4)c3Cl)c2Cl)ccc1CNC[C@@H]1CCC(=O)N1 [Example 284, 8-(2,2′-Dichloro-3′-(6-methoxy-5-(((((S)-5-oxopyrrolidin-2-yl)methyl)-amino)methyl)-pyridin-2-yl)-[1,1′-biphenyl]-3-yl)-3-(((((S)-5-oxopyrrolidin-3-yl)methyl)amino)methyl)-4H-pyrido[1,2-a]pyrimidin-4-one] | 0.1
20 | COc1nc(-c2cccc(-c3cccc(-c4ccn5c(=O)c6c(nc5c4)OCCNC6)c3Cl)c2Cl)ccc1CNC[C@@H]1CCC(=O)N1 [Example 396, (S)-10-(2,2′-Dichloro-3′-(6-methoxy-5-((((5-oxopyrrolidin-2-yl)methyl)amino)methyl)pyridin-2-yl)-[1,1′-biphenyl]-3-yl)-4,5-dihydro-2H-pyrido[1′,2′:1,2]pyrimido[5,4-f][1,4]oxazepin-6(3H)-one] | 15
